Measured values taken from US20230112418A1, “COMPOUND AND RADIOACTIVE LABELING COMPOUND” (NIHON MEDI-PHYSICS CO., LTD., priority 2020, published 2023).

Tests used:
[1] = system: LNCaP tumor transplanted mice; assay: SPECT/CT using LNCaP tumor transplanted mice; assay type: in vivo; conditions: FIG. 7
Method: A saline solution (1.9 to 3.0 MBq, 150 μL) of [^111In]In-PSMA-DA1 or [^111In]In-PSMA-DB was injected into each of the LNCaP tumor transplanted mice generated by the above-described method via the tail vein thereof. SPECT/CT was performed with an FX3300 pre-clinical imaging system manufactured by Gamma Medica-Ideas 24 and 48 hours after the injection. Imaging was performed under isoflurane anesthesia using a pinhole collimator with a diameter of 1.0 mm at a rotation radius of 35 mm, a scan time of 70 seconds, and the number of times of imaging of 32. After SPECT, CT (tube voltage: 60 kV, tube current: 350 μA) was performed. Image reconstruction by a three-dimensional ordered subset expectation maximization method (8 subsets, 5 iterations) was performed on projection data of SPECT.
Results of SPECT/CT are illustrated in FIG. 7. In FIG. 7, a portion indicated by an arrow is a position where the tumor is present, and a portion indicated by a circle is a position where the kidney is present. The higher the SUV, the amount of radioactivity accumulated is large.

[2] = system: LNCaP tumor transplanted mice; assay: In vivo radioactivity distribution using LNCaP tumor transplanted mice
Method: Animal experiments were performed in accordance with the guidelines of Kyoto University Animal Experiment Committee. Male CB17/IcrJcl-Prkdc^scid mice were purchased from CLEA Japan, Inc. The animals were raised under 12 h/12 h day/night cycle conditions and freely fed with food and water. LNCaP cells (1.0×10^7 cells/mouse) or PC-3 cells (1.0×10^7 cells/mouse) were suspended in a mixed liquid (1:1,150 μL) of PBS and Matrigel manufactured by Corning Life Sciences Inc., and the suspension was subcutaneously transplanted to the right shoulder of each of the mice under isoflurane anesthesia. Thereafter, the mice were raised for 40 to 60 days.
A saline solution (185 kBq, 100 μL) of [^111In]In-PSMA-DA1 or [^111In]In-PSMA-DB was injected into each of LNCaP or PC-3 tumor transplanted mice via the tail vein thereof (n=3 in each group). The mice were euthanized 1, 4, 24, 48, 96, and 192 hours after the injection. Thereafter, blood and organs were collected, and the mass and radioactivity of each of the organs were measured.
A result thereof is indicated as a value (% ID/g) obtained by dividing the percentage (% ID) of the amount of radioactivity with respect to the amount of injected radioactivity (injected dose) by the mass of blood or the mass of an organ (g). […]

O=C([O-])CN1CCN(C(CCC(=O)NCCCC[C@H](NC(=O)N[C@@H](CCC(=O)O)C(=O)O)C(=O)O)C(=O)[O-])CCN(CC(=O)[O-])CCN(C(CCC(=O)Nc2ccccc2)C(=O)[O-])CC1.[111In+3] (stereo partly shown) [[^111In]In-PSMA-DB]
SPECT/CT radioactivity accumulation in the LNCaP tumor (in words) ([1]; 24 and 48 hours after the injection): radioactivity accumulation was also observed in the LNCaP tumor | SPECT/CT kidney versus tumor radioactivity (in words) [1]: the accumulation was lower than that in the kidney | Accumulation: Blood ([2]; 1 hour after injection): 3.33 ± 0.21 % ID/g | Accumulation: Brain ([2]; 1 hour after injection): 0.06 ± 0.01 % ID/g | Accumulation: Heart ([2]; 1 hour after injection): 0.87 ± 0.33 % ID/g | Accumulation: Intestinal ([2]; 1 hour after injection): 0.59 ± 0.14 % ID/g | Accumulation: Kidney ([2]; 1 hour after injection): 59.2 ± 35.2 % ID/g | Accumulation: LNCaP tumor ([2]; 1 hour after injection): 3.36 ± 0.04 % ID/g | Accumulation: Liver ([2]; 1 hour after injection): 0.91 ± 0.20 % ID/g | Accumulation: Lung ([2]; 1 hour after injection): 2.24 ± 0.60 % ID/g | Accumulation: Muscle ([2]; 1 hour after injection): 0.23 ± 0.68 % ID/g | Accumulation: Pancreas ([2]; 1 hour after injection): 0.74 ± 0.25 % ID/g | Accumulation: Spleen ([2]; 1 hour after injection): 3.05 ± 0.53 % ID/g | Accumulation: Stomach ([2]; 1 hour after injection): 0.10 ± 0.04 % ID | Accumulation: Blood ([2]; 4 hours after injection): 2.00 ± 0.29 % ID/g | Accumulation: Brain ([2]; 4 hours after injection): 0.05 ± 0.00 % ID/g | Accumulation: Heart ([2]; 4 hours after injection): 0.60 ± 0.08 % ID/g | Accumulation: Intestinal ([2]; 4 hours after injection): 1.05 ± 0.10 % ID/g | Accumulation: Kidney ([2]; 4 hours after injection): 22.7 ± 9.69 % ID/g | Accumulation: LNCaP tumor ([2]; 4 hours after injection): 2.50 ± 0.50 % ID/g | Accumulation: Liver ([2]; 4 hours after injection): 0.95 ± 0.05 % ID/g | Accumulation: Lung ([2]; 4 hours after injection): 1.56 ± 0.07 % ID/g | Accumulation: Muscle ([2]; 4 hours after injection): 0.21 ± 0.04 % ID/g | Accumulation: Pancreas ([2]; 4 hours after injection): 0.54 ± 0.22 % ID/g | Accumulation: Spleen ([2]; 4 hours after injection): 2.39 ± 0.05 % ID/g | Accumulation: Stomach ([2]; 4 hours after injection): 0.13 ± 0.03 % ID | Accumulation: Blood ([2]; 24 hours after injection): 0.68 ± 0.17 % ID/g | Accumulation: Brain ([2]; 24 hours after injection): 0.07 ± 0.02 % ID/g | Accumulation: Heart ([2]; 24 hours after injection): 0.43 ± 0.07 % ID/g | Accumulation: Intestinal ([2]; 24 hours after injection): 1.00 ± 0.44 % ID/g | Accumulation: Kidney ([2]; 24 hours after injection): 13.2 ± 2.41 % ID/g | Accumulation: LNCaP tumor ([2]; 24 hours after injection): 2.09 ± 0.39 % ID/g | Accumulation: Liver ([2]; 24 hours after injection): 1.55 ± 0.32 % ID/g | Accumulation: Lung ([2]; 24 hours after injection): 0.97 ± 0.15 % ID/g | Accumulation: Muscle ([2]; 24 hours after injection): 0.21 ± 0.07 % ID/g | Accumulation: Pancreas ([2]; 24 hours after injection): 0.71 ± 0.10 % ID/g | Accumulation: Spleen ([2]; 24 hours after injection): 3.37 ± 0.75 % ID/g | Accumulation: Stomach ([2]; 24 hours after injection): 0.16 ± 0.05 % ID | Accumulation: Blood ([2]; 48 hours after injection): 0.27 ± 0.16 % ID/g | Accumulation: Brain ([2]; 48 hours after injection): 0.03 ± 0.02 % ID/g | Accumulation: Heart ([2]; 48 hours after injection): 0.32 ± 0.05 % ID/g | Accumulation: Intestinal ([2]; 48 hours after injection): 0.79 ± 0.21 % ID/g | Accumulation: Kidney ([2]; 48 hours after injection): 8.58 ± 2.02 % ID/g | Accumulation: LNCaP tumor ([2]; 48 hours after injection): 1.69 ± 0.77 % ID/g | Accumulation: Liver ([2]; 48 hours after injection): 1.28 ± 0.16 % ID/g | Accumulation: Lung ([2]; 48 hours after injection): 0.66 ± 0.24 % ID/g | Accumulation: Muscle ([2]; 48 hours after injection): 0.15 ± 0.06 % ID/g | Accumulation: Pancreas ([2]; 48 hours after injection): 0.71 ± 0.17 % ID/g | Accumulation: Spleen ([2]; 48 hours after injection): 2.63 ± 0.83 % ID/g | Accumulation: Stomach ([2]; 48 hours after injection): 0.07 ± 0.02 % ID | Accumulation: Blood ([2]; 96 hours after injection): 0.14 ± 0.04 % ID/g | Accumulation: Brain ([2]; 96 hours after injection): 0.09 ± 0.05 % ID/g | Accumulation: Heart ([2]; 96 hours after injection): 0.40 ± 0.12 % ID/g | Accumulation: Intestinal ([2]; 96 hours after injection): 0.41 ± 0.17 % ID/g | Accumulation: Kidney ([2]; 96 hours after injection): 7.04 ± 3.28 % ID/g | Accumulation: LNCaP tumor ([2]; 96 hours after injection): 1.05 ± 0.03 % ID/g | Accumulation: Liver ([2]; 96 hours after injection): 1.59 ± 0.57 % ID/g | Accumulation: Lung ([2]; 96 hours after injection): 0.70 ± 0.15 % ID/g | Accumulation: Muscle ([2]; 96 hours after injection): 0.14 ± 0.08 % ID/g | Accumulation: Pancreas ([2]; 96 hours after injection): 0.85 ± 0.39 % ID/g | Accumulation: Spleen ([2]; 96 hours after injection): 2.82 ± 0.87 % ID/g | Accumulation: Stomach ([2]; 96 hours after injection): 0.10 ± 0.03 % ID | Accumulation: Blood ([2]; 192 hours after injection): 0.07 ± 0.03 % ID/g | Accumulation: Brain ([2]; 192 hours after injection): 0.04 ± 0.00 % ID/g | Accumulation: Heart ([2]; 192 hours after injection): 0.33 ± 0.01 % ID/g | Accumulation: Intestinal ([2]; 192 hours after injection): 0.13 ± 0.02 % ID/g | Accumulation: Kidney ([2]; 192 hours after injection): 3.47 ± 1.24 % ID/g | Accumulation: LNCaP tumor ([2]; 192 hours after injection): 0.83 ± 0.11 % ID/g | Accumulation: Liver ([2]; 192 hours after injection): 1.20 ± 0.09 % ID/g | Accumulation: Lung ([2]; 192 hours after injection): 0.67 ± 0.05 % ID/g | Accumulation: Muscle ([2]; 192 hours after injection): 0.14 ± 0.09 % ID/g | Accumulation: Pancreas ([2]; 192 hours after injection): 1.04 ± 0.18 % ID/g | Accumulation: Spleen ([2]; 192 hours after injection): 3.46 ± 0.32 % ID/g | Accumulation: Stomach ([2]; 192 hours after injection): 0.05 ± 0.00 % ID | Tumor accumulation compared with [^111In]In-PSMA-DA1 (in words) ([2]; LNCaP tumor): tumor accumulation lower than that of [^111In]In-PSMA-DA1 | Tumor/kidney ratio compared with [^111In]In-PSMA-DA1 (in words) ([2]; at any time point): lower tumor/kidney ratio
